Measurements taken from PubChem BioAssay AID192 (DTP/NCI, 2004).
Values joined by “and” are separate entries in the source; they are usually repeats but may differ in a detail not shown here. Identical values can stand only once. Toxic doses and inconclusive results are not listed. How the source made its calls: active means survival T/C of 150% or more; inactive means T/C below 125% in these data.

Tested on: BDF1 mice, B16 melanoma ip, median survival T/C
Test: NCI In Vivo Anticancer Drug Screen. Data for tumor model B16 Melanoma (intraperitoneal) in B6D2F1 (BDF1) mice
Conditions: endpoint: median survival time, higher = longer survival
Outline: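 Values are ratios of treated (T) to vehicle-control (C) measurements of survival or tumor size in tumor-bearing mice.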

[1] = dose: 6.25 mg/kg/injection, schedule: Q01DX009 (ip), vehicle: Klucel (hydroxypropylcellulose) (HPC)
[2] = dose: 12.5 mg/kg/injection, schedule: Q01DX009 (ip), vehicle: Klucel (hydroxypropylcellulose) (HPC)
[3] = dose: 25.0 mg/kg/injection, schedule: Q01DX009 (ip), vehicle: Klucel (hydroxypropylcellulose) (HPC)
[4] = dose: 50.0 mg/kg/injection, schedule: Q01DX009 (ip), vehicle: Klucel (hydroxypropylcellulose) (HPC)
[5] = dose: 25.0 mg/kg/injection, schedule: Q01DX009 (ip), vehicle: saline with Tween-80
[6] = dose: 50.0 mg/kg/injection, schedule: Q01DX009 (ip), vehicle: saline with Tween-80
[7] = dose: 100.0 mg/kg/injection, schedule: Q01DX009 (ip), vehicle: saline with Tween-80
[8] = dose: 25.0 mg/kg/injection, schedule: Q01DX009 (ip), vehicle: saline
[9] = dose: 50.0 mg/kg/injection, schedule: Q01DX009 (ip), vehicle: saline
[10] = dose: 100.0 mg/kg/injection, schedule: Q01DX009 (ip), vehicle: saline
[11] = dose: 200.0 mg/kg/injection, schedule: Q01DX009 (ip), vehicle: saline with Tween-80
[12] = dose: 12.5 mg/kg/injection, schedule: Q01DX009 (ip), vehicle: saline with Tween-80
[13] = dose: 1.5 mg/kg/injection, schedule: Q01DX009 (ip), vehicle: saline with Tween-80
[14] = dose: 3.0 mg/kg/injection, schedule: Q01DX009 (ip), vehicle: saline with Tween-80
[15] = dose: 6.0 mg/kg/injection, schedule: Q01DX009 (ip), vehicle: saline with Tween-80

Measured: T/C

CCCCCCCCCCCC(c1ccccc1)[N+](C)(C)Cc1ccccc1 (configuration not stated)
inactive: dose: 0.25 mg/kg/injection, schedule: Q01DX009 (ip), vehicle: saline sonified 94 % of control | dose: 0.5 mg/kg/injection, schedule: Q01DX009 (ip), vehicle: saline sonified 110 % of control | dose: 1.0 mg/kg/injection, schedule: Q01DX009 (ip), vehicle: saline sonified 105 % of control | dose: 2.0 mg/kg/injection, schedule: Q01DX009 (ip), vehicle: saline sonified 102 % of control

O=C(Oc1ccc(OC(=O)c2ccccc2)c2c1C(=O)C(CBr)=C(CBr)C2=O)c1ccccc1
inactive: [1] 97 % of control | [2] 100 % of control | [3] 97 % of control | [4] 101 % of control

CS(=O)(=O)OCCN(CCOS(C)(=O)=O)c1ccc(/C=N/Nc2ncnc3nc[nH]c23)cc1
inactive: [5] 115 % of control | [6] 110 % of control | [7] 105 % of control and 113 % of control | dose: 400.0 mg/kg/injection, schedule: Q04DX003 (ip), vehicle: saline with Tween-80 91 % of control and 121 % of control

C[C@@H]1C[C@@]2(C)[C@@H](CC[C@@H]3[C@@H]2CC[C@]2(C)[C@@H](OC4CCCCO4)CC[C@@H]32)CC1=O (some centres not stated)
inactive: [3] 105 % of control | [4] 100 % of control | dose: 100.0 mg/kg/injection, schedule: Q01DX009 (ip), vehicle: Klucel (hydroxypropylcellulose) (HPC) 100 % of control

CN(C)CCC1CCCCN1 (configuration not stated)
inactive: [8] 112 % of control | [9] 100 % of control | [10] 100 % of control

CSc1ncc(C#N)c(N)n1
inactive: [6] 107 % of control | [7] 99 % of control | [11] 97 % of control

Nc1c(S(=O)(=O)O)cc(Nc2ccccc2)c2c1C(=O)c1ccccc1C2=O
inactive: [8] 121 % of control | [9] 115 % of control | [10] 115 % of control

O=[N+]([O-])c1cc(Cl)cc2c1nc(NCCO)c1ccccc12
inactive: [12] 97 % of control | [5] 97 % of control

CCCCCCCCCCCCCCC/C([O-])=N/[N+](C)(C)CC(C)O (configuration not stated)
inactive: dose: 25.0 mg/kg/injection, schedule: Q01DX001 (ip), vehicle: saline 97 % of control | dose: 50.0 mg/kg/injection, schedule: Q01DX001 (ip), vehicle: saline 96 % of control | dose: 100.0 mg/kg/injection, schedule: Q01DX001 (ip), vehicle: saline 95 % of control | dose: 200.0 mg/kg/injection, schedule: Q01DX001 (ip), vehicle: saline 95 % of control

N/N=C(\N)c1nn(C2OC(CO)C(O)C2O)c2ncnc(N)c12 (configuration not stated)
inactive: dose: 40.0 mg/kg/injection, schedule: Q01DX005 (ip), vehicle: saline 91 % of control | dose: 80.0 mg/kg/injection, schedule: Q01DX005 (ip), vehicle: saline 95 % of control | dose: 160.0 mg/kg/injection, schedule: Q01DX005 (ip), vehicle: saline 100 % of control

Nc1nc(O)c(CC(=O)O)s1
inactive: [2] 88 % of control | [3] 91 % of control | [4] 95 % of control

Cc1n(Cc2ccccc2)c2c([n+]1C)C(=O)c1ccccc1C2=O
inactive: dose: 0.13 mg/kg/injection, schedule: Q01DX009 (ip), vehicle: saline 95 % of control | dose: 0.25 mg/kg/injection, schedule: Q01DX009 (ip), vehicle: saline 95 % of control | dose: 0.5 mg/kg/injection, schedule: Q01DX009 (ip), vehicle: saline 95 % of control | dose: 1.0 mg/kg/injection, schedule: Q01DX009 (ip), vehicle: saline 87 % of control

NC(=S)N/N=C1/c2cc(Cl)ccc2-c2c(NC(=O)C(Cl)Cl)cc(Cl)cc21
inactive: [7] 95 % of control | [11] 93 % of control | dose: 400.0 mg/kg/injection, schedule: Q01DX009 (ip), vehicle: saline with Tween-80 86 % of control

COc1cccnc1/C=N/NC(N)=S
inactive: [13] 98 % of control | [14] 93 % of control | [15] 95 % of control | dose: 12.0 mg/kg/injection, schedule: Q01DX009 (ip), vehicle: saline with Tween-80 98 % of control

COc1c2ccoc2nc2c(OC)c3c(cc12)OCO3
inactive: [1] 89 % of control | [2] 100 % of control | [3] 95 % of control | [4] 92 % of control

CN(Cc1ccccc1)/N=N/c1nc[nH]c1C(N)=O
inactive: [5] 111 % of control | [6] 111 % of control | [7] 111 % of control | [11] 110 % of control

Cc1c(N)nc(C(CC(N)=O)NCC(N)C(N)=O)nc1C(=O)NC(C(=O)NC(C)C(O)C(C)C(=O)NC(C(=O)NCCc1nc(-c2nc(C(=O)NCCCNCCCc3ccccn3)cs2)cs1)C(C)O)C(OC1OC(CO)C(O)C(O)C1OC1OC(CO)C(O)C(OC(N)=O)C1O)c1cnc[nH]1 (configuration not stated)
inactive: dose: 1.5 mg/kg/injection, schedule: Q01DX009 (ip), vehicle: water 93 % of control | dose: 3.0 mg/kg/injection, schedule: Q01DX009 (ip), vehicle: water 102 % of control | dose: 6.0 mg/kg/injection, schedule: Q01DX009 (ip), vehicle: water 102 % of control and 105 % of control | dose: 12.0 mg/kg/injection, schedule: Q01DX009 (ip), vehicle: water 105 % of control and 110 % of control | dose: 24.0 mg/kg/injection, schedule: Q01DX009 (ip), vehicle: water 100 % of control

COc1ccc2c(c1OC)C13CCCCC1C(C2)[N+](C)(C)CC3 (configuration not stated)
inactive: dose: 0.02 mg/kg/injection, schedule: Q01DX009 (ip), vehicle: Klucel (hydroxypropylcellulose) (HPC) 91 % of control | dose: 0.04 mg/kg/injection, schedule: Q01DX009 (ip), vehicle: Klucel (hydroxypropylcellulose) (HPC) 89 % of control | dose: 0.78 mg/kg/injection, schedule: Q01DX009 (ip), vehicle: Klucel (hydroxypropylcellulose) (HPC) 87 % of control | dose: 3.12 mg/kg/injection, schedule: Q01DX009 (ip), vehicle: Klucel (hydroxypropylcellulose) (HPC) 86 % of control

Cc1c2oc3c(C)ccc(C(=O)NCCN4CCCCC4)c3nc-2c(C(=O)NCCN2CCCCC2)c(N)c1=O
inactive: [2] 97 % of control | [3] 112 % of control

N#C[CH2][Sn]([I])([c]1ccccc1)[c]1ccccc1
inactive: dose: 3.12 mg/kg/injection, schedule: Q01DX009 (ip), vehicle: saline with Tween-80 93 % of control | dose: 6.25 mg/kg/injection, schedule: Q01DX009 (ip), vehicle: saline with Tween-80 87 % of control | [12] 86 % of control

IP(c1ccccc1)(c1ccccc1)(c1ccccc1)N1C2CCCCC21 (configuration not stated)
inactive: dose: 0.15 mg/kg/injection, schedule: Q01DX009 (ip), vehicle: saline 115 % of control | dose: 0.3 mg/kg/injection, schedule: Q01DX009 (ip), vehicle: saline 111 % of control | dose: 0.6 mg/kg/injection, schedule: Q01DX009 (ip), vehicle: saline 111 % of control | dose: 1.2 mg/kg/injection, schedule: Q01DX009 (ip), vehicle: saline 92 % of control

Cc1cc2nc(CBr)c(CBr)nc2cc1C
inactive: dose: 0.1 mg/kg/injection, schedule: Q01DX009 (ip), vehicle: saline with Tween-80 86 % of control | dose: 0.2 mg/kg/injection, schedule: Q01DX009 (ip), vehicle: saline with Tween-80 86 % of control | dose: 0.4 mg/kg/injection, schedule: Q01DX009 (ip), vehicle: saline with Tween-80 92 % of control | dose: 0.75 mg/kg/injection, schedule: Q01DX009 (ip), vehicle: saline with Tween-80 107 % of control | dose: 0.8 mg/kg/injection, schedule: Q01DX009 (ip), vehicle: saline with Tween-80 94 % of control | [13] 97 % of control | [14] 97 % of control | [15] 89 % of control

CCCCCCCCCCCCCCCC(=O)N(C(C)CCCN(CC)CC)C(C)CCCN(CC)CC (configuration not stated)
inactive: dose: 3.13 mg/kg/injection, schedule: Q01DX009 (ip), vehicle: other 91 % of control | dose: 12.5 mg/kg/injection, schedule: Q01DX009 (ip), vehicle: other 92 % of control

O=C(COc1cc(Cl)c(Cl)cc1Cl)OCCOc1cc(Cl)c(Cl)cc1Cl
inactive: dose: 12.0 mg/kg/injection, schedule: Q01DX009 (ip), vehicle: Klucel (hydroxypropylcellulose) (HPC) 98 % of control | dose: 24.0 mg/kg/injection, schedule: Q01DX009 (ip), vehicle: Klucel (hydroxypropylcellulose) (HPC) 98 % of control | dose: 48.0 mg/kg/injection, schedule: Q01DX009 (ip), vehicle: Klucel (hydroxypropylcellulose) (HPC) 91 % of control | dose: 96.0 mg/kg/injection, schedule: Q01DX009 (ip), vehicle: Klucel (hydroxypropylcellulose) (HPC) 93 % of control
